Measurements taken from publication PMC4574636 (Biochemical pharmacology, 2015).
Entries after “also recorded” stand apart in the source; their conditions may differ. Like-named read-outs stand apart in the source and are kept apart here.

Assays:
human AOX1 I1085A = biological target: T1, human AOX1 I1085A (Homo sapiens, UniProt Q06278, I1085A); assay: Methotrexate hydroxylation by purified recombinant human AOX1 I1085A mutant; assay type: in vitro ADME; conditions: I1085A single mutant, Figure 5
T1 sequence (Q06278 1-1338 I1085A): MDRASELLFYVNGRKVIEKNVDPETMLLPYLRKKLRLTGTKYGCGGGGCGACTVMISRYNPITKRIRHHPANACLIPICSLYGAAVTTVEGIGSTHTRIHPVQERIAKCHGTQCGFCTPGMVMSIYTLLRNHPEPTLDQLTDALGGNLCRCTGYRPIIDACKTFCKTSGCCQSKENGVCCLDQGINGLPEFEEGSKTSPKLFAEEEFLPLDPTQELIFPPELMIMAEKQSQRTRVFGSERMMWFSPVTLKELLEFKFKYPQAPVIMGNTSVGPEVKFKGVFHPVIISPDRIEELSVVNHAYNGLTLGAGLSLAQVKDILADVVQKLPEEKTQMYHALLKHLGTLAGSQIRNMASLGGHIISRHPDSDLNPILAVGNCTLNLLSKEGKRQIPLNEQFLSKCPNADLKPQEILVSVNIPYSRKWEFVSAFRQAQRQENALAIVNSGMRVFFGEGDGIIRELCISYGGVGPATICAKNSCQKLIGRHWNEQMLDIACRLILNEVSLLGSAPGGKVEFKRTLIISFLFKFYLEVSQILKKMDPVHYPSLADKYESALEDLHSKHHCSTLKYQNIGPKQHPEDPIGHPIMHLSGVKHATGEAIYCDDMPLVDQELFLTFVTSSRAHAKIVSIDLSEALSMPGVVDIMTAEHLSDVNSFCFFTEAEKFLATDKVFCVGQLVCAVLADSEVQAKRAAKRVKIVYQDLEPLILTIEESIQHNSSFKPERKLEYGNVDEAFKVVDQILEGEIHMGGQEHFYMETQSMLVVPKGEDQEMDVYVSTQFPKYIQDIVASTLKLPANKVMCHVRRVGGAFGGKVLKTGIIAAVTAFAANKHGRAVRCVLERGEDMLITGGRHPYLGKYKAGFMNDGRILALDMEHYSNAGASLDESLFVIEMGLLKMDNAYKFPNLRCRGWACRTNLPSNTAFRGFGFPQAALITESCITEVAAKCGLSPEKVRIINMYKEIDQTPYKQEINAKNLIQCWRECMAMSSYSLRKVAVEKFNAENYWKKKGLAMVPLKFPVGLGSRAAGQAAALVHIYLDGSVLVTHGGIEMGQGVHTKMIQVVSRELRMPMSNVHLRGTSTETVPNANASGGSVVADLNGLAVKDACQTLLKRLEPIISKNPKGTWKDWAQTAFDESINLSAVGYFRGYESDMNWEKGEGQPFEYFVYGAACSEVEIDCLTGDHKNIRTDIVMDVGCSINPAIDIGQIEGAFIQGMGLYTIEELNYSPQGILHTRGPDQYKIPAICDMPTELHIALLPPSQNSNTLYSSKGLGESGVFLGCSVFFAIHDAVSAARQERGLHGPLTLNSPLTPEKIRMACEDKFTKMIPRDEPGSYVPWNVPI

aldehyde oxidase (AOX) = conditions: rat liver cytosol, mean ± SEM, estimate, saturation incomplete
AOX1 = biological target: T2, AOX1 (Macaca mulatta, UniProt I0FRB2); conditions: monkey liver cytosol; calculated from Vmax and AOX1 level (figure 1A)
T2 sequence (I0FRB2 1-1338): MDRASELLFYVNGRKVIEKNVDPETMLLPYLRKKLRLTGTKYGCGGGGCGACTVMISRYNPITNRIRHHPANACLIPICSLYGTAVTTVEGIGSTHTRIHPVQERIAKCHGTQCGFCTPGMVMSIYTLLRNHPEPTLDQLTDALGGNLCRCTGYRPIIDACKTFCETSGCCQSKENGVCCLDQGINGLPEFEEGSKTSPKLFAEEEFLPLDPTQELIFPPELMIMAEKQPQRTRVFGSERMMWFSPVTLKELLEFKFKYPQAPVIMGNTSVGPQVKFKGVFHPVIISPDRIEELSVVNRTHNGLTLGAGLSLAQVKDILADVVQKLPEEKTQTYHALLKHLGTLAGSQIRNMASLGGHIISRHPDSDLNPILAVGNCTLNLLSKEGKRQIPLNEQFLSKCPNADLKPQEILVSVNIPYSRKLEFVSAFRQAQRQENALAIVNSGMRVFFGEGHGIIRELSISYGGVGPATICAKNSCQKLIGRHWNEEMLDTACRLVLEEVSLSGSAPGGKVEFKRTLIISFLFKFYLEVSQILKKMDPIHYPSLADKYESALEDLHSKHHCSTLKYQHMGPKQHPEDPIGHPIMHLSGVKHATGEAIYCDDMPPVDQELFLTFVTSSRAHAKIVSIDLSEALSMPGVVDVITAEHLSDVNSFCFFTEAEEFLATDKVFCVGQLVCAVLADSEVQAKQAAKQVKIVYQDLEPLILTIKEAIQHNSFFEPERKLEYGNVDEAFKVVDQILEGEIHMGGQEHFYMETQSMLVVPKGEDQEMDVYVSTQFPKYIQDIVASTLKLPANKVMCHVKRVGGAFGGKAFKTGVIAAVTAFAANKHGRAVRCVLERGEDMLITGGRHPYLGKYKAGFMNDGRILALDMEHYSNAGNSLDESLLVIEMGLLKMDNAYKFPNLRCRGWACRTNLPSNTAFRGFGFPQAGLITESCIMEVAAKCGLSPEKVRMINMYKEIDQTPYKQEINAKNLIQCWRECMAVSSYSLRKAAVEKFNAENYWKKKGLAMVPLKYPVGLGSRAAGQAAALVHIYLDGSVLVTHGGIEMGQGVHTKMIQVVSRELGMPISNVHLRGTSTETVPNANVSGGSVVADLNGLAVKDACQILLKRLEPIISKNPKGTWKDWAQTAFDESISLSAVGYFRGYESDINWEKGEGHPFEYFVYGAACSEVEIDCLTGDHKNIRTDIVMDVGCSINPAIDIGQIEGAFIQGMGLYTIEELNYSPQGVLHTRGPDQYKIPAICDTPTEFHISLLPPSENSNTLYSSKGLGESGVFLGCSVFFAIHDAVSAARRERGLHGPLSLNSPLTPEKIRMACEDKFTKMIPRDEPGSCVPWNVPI

For `CN(Cc1cnc2nc(N)nc(N)c2n1)c1ccc(C(=O)N[C@@H](CCC(=O)O)C(=O)O)cc1` [Methotrexate, 4-amino-N^1^0-methylpteroglutamic acid], the “Km / affinity vs wild type” value (human AOX1 I1085A) was “lower Km and higher affinity; also recorded: Km that was similar to cytosolic AOX from rabbit liver”, the “Methotrexate hydroxylation activity vs wild type” value (human AOX1 I1085A) was “slightly higher activity compared to the wild type” and the Vmax (aldehyde oxidase (AOX)) was 50 ± 3 pmol/min/mg. For the same compound, the Vmax (aldehyde oxidase (AOX); listed as methotrexate) was 40 to 70 pmol/min/mg and the “kcat (Vmax/[AOX1])” value (AOX1) was 0.583 s⁻¹.
